# Source: ChEMBL document CHEMBL1201862, “PubChem BioAssay data set” (2004)
# Where a name gives a salt, the structure may show the parent alone. The source made the active and inactive calls.
# How the values were obtained:
# [1] = target: G2/mitotic-specific cyclin-B1 (Homo sapiens, UniProt P14635); assay: HeLa cell cycle G2/M accumulation – FACS, mechanism study for Wee1 degradation inhibitor project, late-stage follow-up, panel member Cyclin B Degradation (AID 2088)
# Wee1-like protein kinase = Wee1-like protein kinase (Homo sapiens, UniProt P30291); assay: HeLa cell cycle G2/M accumulation – FACS, mechanism study for Wee1 degradation inhibitor project, late-stage follow-up, panel member Wee1 Degradation (AID 2088)
# [2] = HPDE-C7 pancreatic duct cell viability loss – fluorescence, HTS (AID 430); type: functional, cell-based; details: Homo sapiens
# [3] = target: Serine/threonine-protein phosphatase PP1-alpha catalytic subunit (Homo sapiens, UniProt P62136); assay: inhibition of protein phosphatase 1 activity – biochemical, fluorescence, dose response (AID 2403);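 further: phosphatase turnover of OMFP into fluorescent 3-O-methylfluorescein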
# [4] = target: T1, Heat shock factor protein 1 (Mus musculus, UniProt P38532); assay: enhancement of HSF1-driven luciferase signal – cell-based, NIH3T3, luminescence, dose retest, confirmation (AID 435004); type: functional;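 further: stress induced by proteasome inhibitor MG132 added 30 min after compound; luciferase reporter driven by HSF1 response element in NIH3T3 cells; actives raise luminescence as potentiators of the MG132 stress response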
# T1 sequence (P38532 whole entry): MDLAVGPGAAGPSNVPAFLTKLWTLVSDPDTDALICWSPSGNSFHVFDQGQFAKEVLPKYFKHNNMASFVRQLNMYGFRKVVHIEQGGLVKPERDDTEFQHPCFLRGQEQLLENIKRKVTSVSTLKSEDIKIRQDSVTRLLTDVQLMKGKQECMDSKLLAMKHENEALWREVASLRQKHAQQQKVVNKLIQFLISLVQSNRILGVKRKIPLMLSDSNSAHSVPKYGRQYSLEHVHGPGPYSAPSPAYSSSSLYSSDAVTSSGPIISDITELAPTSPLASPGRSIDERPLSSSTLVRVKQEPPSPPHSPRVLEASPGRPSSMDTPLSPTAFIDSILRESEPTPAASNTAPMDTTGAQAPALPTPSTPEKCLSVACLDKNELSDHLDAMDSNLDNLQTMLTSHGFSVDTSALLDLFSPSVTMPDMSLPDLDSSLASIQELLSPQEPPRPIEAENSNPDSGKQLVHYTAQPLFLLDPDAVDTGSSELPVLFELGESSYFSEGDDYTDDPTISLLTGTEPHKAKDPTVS
# [5] = target: T2, Mannose-6-phosphate isomerase (Homo sapiens, UniProt P34949); assay: MPI inhibition at elevated mannose 6-phosphate – biochemical, fluorescence intensity, high mannose 6-phosphate, primary screen (AID 1220)
# T2 sequence (P34949 whole entry): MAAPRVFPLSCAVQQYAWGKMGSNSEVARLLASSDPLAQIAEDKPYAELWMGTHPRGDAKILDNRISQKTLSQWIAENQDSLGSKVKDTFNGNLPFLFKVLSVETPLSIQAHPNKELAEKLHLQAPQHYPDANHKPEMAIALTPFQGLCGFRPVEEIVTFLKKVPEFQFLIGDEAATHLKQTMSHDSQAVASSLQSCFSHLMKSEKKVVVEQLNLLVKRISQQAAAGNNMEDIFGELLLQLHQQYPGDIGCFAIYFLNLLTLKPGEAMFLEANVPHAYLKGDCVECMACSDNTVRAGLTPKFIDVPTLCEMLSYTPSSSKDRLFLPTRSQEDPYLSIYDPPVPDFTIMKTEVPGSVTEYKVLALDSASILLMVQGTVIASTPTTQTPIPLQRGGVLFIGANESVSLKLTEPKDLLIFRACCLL
# Estrogen receptor beta = Estrogen receptor beta (Homo sapiens, UniProt Q92731); assay: blockers of SRC-3 recruitment to ERβ – biochemical, ELISA, streptavidin-HRP readout, orthogonal assay, confirmation (AID 1060)
# Chain of Estrogen receptor beta (Q92731 whole entry): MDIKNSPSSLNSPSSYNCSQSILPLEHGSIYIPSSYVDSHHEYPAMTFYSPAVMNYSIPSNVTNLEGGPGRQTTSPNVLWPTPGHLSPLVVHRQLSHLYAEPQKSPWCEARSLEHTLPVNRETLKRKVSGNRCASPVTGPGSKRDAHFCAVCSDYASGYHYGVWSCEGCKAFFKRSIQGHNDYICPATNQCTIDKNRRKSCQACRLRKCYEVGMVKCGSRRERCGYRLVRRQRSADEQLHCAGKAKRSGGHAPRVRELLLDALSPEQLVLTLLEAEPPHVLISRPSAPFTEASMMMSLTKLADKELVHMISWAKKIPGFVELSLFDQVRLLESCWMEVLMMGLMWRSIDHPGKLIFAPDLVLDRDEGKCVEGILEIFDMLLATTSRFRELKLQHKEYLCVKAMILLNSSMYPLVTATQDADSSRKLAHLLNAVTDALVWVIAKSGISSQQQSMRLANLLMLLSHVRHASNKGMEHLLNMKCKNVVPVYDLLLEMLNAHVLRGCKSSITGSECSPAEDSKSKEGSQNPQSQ
# [6] = target: Serine/threonine-protein phosphatase (Homo sapiens, UniProt Q9BPW0); assay: Counterscreen for inhibitors of PP1: fluorescence-based biochemical high throughput dose response assay to identify inhibitors of Protein Phosphatase 5 (PP5). [Related pubchem assays: 2034 (Summary (PP5 inhibitors)), 1987 (PP5 inhibitors in singlate), 2235 (PP1 inhibitors in singlate)]
# [7] = fluconazole-exposed Candida albicans growth modulators – fluorescence, retest, confirmation (AID 2467); type: functional, cell-based
# [8] = viability loss of HPDE-C7K cells – cell-based, fluorescence, HTS, primary screen (AID 431); type: functional; details: Homo sapiens
# [9] = NIH-3T3 fibroblast cytotoxicity, dose response, cytotoxicity control, cell-based, fluorescence, Alamar Blue, secondary assay (AID 2327); type: functional;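 further: NIH-3T3 mouse fibroblasts cultured with fluconazole at 8 µg/mL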
# [10] = target: Scavenger receptor class B member 1 (Mus musculus, UniProt Q61009); assay: mouse SR-BI DiI-HDL uptake blockers – ldlA[mSR-BI] cells, fluorescence, cherry pick, dose response (AID 493194); type: functional, cell-based;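 further: cellular uptake of fluorescent DiI-labeled HDL measured as cell fluorescence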
# [11] = Luminescence Cell-Based Dose Retest to Confirm Inhibitors of Cancer Stem Cells. [Related pubchem assays (depositor defined):AID2717, AID2721]; type: functional; details: Homo sapiens
# [12] = HEK-293T cell viability reduction – luminescence, B-cell screen hits, cytotoxicity control for BCR NF-kB inhibitor project, dose response (AID 489021); type: functional, cell-based;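 further: HEK-293T cells carrying an NF-kB luciferase reporter; cells exposed to compound for about 14 hours before viability readout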
# SUMO-activating enzyme [13] = target: T3, SUMO-activating enzyme (Homo sapiens, UniProt Q9UBT2); assay: blockers of UBC9-mediated SUMO conjugation – biochemical, AlphaScreen, SUMOylation inhibitor project, confirmation (AID 2018); type: functional
# T3 sequence (Q9UBE0 whole entry): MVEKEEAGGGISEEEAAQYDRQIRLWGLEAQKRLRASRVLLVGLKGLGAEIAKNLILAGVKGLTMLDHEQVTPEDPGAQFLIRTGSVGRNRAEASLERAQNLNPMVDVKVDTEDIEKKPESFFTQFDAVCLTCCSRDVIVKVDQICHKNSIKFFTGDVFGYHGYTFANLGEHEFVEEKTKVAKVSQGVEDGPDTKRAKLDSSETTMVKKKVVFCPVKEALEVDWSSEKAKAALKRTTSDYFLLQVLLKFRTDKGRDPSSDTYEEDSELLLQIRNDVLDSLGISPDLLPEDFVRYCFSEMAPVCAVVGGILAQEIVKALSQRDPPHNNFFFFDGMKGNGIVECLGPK
# T3 sequence (Q9UBT2 whole entry): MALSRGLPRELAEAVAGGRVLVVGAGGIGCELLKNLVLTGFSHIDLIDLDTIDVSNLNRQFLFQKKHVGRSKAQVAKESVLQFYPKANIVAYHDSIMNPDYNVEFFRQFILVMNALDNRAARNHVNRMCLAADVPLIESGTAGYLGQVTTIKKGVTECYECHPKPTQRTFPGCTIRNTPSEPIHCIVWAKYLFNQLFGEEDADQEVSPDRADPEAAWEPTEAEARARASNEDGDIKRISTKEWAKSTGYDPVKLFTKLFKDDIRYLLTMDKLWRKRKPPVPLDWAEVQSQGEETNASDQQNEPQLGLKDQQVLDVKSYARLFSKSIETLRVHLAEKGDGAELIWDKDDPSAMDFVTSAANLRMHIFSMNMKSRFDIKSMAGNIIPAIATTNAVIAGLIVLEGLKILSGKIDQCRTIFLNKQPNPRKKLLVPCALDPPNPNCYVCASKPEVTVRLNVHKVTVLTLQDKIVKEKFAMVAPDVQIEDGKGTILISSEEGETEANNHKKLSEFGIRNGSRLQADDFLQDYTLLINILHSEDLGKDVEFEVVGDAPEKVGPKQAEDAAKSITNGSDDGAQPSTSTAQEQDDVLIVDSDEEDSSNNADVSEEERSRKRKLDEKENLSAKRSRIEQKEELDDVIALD
# SUMO-activating enzyme [14] = target: T3, SUMO-activating enzyme; assay: blockers of SAE1/SAE2–UBC9 SUMO transfer – biochemical, HTRF, uHTS, primary screen (AID 2006); type: protein-complex assay
# [15] = target: Eukaryotic translation initiation factor 4E (Mus musculus, UniProt P63073); assay: blockers of eIF4G binding by eIF4E – biochemical, TR-FRET, dose response (AID 855); type: functional;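 further: potency for disrupting eIF4E binding to eIF4GI seen as loss of FRET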
# Streptococcus [16] = assay: GAS UMAA2166 growth inhibition – luminescence, BacTiterGlo, counter-screen for streptokinase expression inhibitor project, dose response (AID 1915); type: functional, organism-based;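 further: potency for reduction of bacterial viability or growth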
# Streptokinase A = target: T4, Streptokinase A (Streptococcus pyogenes serotype M1, UniProt P10520); assay: viability-normalized secreted streptokinase activity reduction – plasminogen activation absorbance, OD405, dose response (AID 1914); type: functional, Streptococcus pyogenes M1 GAS;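 further: secreted streptokinase activity via plasminogen activation per viability signal from cell pellet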
# T4 sequence (P10520 whole entry): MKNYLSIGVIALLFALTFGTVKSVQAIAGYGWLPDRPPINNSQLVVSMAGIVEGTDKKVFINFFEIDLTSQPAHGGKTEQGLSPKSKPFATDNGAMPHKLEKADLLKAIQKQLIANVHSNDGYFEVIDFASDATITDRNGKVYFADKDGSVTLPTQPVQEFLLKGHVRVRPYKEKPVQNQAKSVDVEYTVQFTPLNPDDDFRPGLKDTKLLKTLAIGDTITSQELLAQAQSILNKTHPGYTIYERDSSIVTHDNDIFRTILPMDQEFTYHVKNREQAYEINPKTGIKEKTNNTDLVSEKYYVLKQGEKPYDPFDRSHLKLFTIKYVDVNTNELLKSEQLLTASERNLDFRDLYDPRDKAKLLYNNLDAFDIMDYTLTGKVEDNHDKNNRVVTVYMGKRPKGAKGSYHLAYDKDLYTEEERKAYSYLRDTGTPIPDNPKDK
# Streptococcus [17] = assay: Luminescence Microorganism-Based Dose Response Follow up to Identify Compounds Cytotoxic to Streptococcus. [Related pubchem assays: 1677 (Project Summary), 1915, 1914, 1902 (Retest at Dose), 1900 (Counter Screen), 1662 (Primary HTS)]; type: functional, organism-based
# [18] = system: Streptococcus sp. 'group A'; assay: Streptococcus pyogenes SK(-)GAS viability under kanamycin – luminescence, BacTiterGlo, confirmation, counter-screen for streptokinase expression inhibitor project, dose response (AID 1900); type: functional, organism-based
# [19] = target: Glyceraldehyde-3-phosphate dehydrogenase (Homo sapiens, UniProt P04406)
# Chain of Glyceraldehyde-3-phosphate dehydrogenase (P04406 whole entry): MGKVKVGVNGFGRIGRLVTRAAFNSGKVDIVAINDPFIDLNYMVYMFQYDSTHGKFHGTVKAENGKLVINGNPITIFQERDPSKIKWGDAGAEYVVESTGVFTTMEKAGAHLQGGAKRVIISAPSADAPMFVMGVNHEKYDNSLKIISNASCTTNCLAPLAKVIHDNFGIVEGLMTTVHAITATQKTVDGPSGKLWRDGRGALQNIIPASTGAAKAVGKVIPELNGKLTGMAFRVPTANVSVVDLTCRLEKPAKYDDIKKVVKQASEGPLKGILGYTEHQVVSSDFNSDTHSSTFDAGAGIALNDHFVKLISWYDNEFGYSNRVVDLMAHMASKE
# [20] = target: T5, Dual specificity protein phosphatase 6 (Rattus norvegicus, UniProt Q64346)
# T5 sequence (Q64346 whole entry): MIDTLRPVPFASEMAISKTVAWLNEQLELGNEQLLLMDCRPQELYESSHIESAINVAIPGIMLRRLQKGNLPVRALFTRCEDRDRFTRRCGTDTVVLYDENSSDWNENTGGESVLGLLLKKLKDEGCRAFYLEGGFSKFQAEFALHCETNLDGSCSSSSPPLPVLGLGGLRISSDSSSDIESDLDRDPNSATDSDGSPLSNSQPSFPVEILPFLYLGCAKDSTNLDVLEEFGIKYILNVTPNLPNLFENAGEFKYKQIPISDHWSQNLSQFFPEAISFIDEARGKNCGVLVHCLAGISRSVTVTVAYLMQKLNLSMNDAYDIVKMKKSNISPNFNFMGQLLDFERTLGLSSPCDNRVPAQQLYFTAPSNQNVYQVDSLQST
# [21] = target: Heat shock 70 kDa protein 1A (Homo sapiens, UniProt P0DMV8); assay: inhibition of Hsp70 binding activity – biochemical, fluorescence polarization, SAR follow-up (AID 1072)
# [22] = target: T6, Tyrosine-protein phosphatase non-receptor type 7 (Homo sapiens, UniProt P35236); type: functional
# T6 sequence (P35236 whole entry): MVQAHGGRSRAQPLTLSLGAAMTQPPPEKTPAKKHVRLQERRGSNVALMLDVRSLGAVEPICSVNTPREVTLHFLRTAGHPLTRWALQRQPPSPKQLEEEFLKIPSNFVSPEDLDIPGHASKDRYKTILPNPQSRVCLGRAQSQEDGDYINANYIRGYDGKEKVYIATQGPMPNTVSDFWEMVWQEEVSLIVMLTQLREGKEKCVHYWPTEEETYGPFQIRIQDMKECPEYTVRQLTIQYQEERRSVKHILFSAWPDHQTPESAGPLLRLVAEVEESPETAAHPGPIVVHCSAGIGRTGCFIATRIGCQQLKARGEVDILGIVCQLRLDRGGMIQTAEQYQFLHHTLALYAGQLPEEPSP
# [23] = target: Heat shock cognate 71 kDa protein (Homo sapiens, UniProt P11142); assay: In Vitro Hsc70 Dose Response Fluorescence Polarization Assay. [Related pubchem assays: 1072 ]
# [24] = target: T5, Dual specificity protein phosphatase 6; type: functional
# Beta-galactosidase = Beta-galactosidase (Escherichia coli, UniProt Q8VNN2); type: functional
# Chain of Beta-galactosidase (Q8VNN2 whole entry): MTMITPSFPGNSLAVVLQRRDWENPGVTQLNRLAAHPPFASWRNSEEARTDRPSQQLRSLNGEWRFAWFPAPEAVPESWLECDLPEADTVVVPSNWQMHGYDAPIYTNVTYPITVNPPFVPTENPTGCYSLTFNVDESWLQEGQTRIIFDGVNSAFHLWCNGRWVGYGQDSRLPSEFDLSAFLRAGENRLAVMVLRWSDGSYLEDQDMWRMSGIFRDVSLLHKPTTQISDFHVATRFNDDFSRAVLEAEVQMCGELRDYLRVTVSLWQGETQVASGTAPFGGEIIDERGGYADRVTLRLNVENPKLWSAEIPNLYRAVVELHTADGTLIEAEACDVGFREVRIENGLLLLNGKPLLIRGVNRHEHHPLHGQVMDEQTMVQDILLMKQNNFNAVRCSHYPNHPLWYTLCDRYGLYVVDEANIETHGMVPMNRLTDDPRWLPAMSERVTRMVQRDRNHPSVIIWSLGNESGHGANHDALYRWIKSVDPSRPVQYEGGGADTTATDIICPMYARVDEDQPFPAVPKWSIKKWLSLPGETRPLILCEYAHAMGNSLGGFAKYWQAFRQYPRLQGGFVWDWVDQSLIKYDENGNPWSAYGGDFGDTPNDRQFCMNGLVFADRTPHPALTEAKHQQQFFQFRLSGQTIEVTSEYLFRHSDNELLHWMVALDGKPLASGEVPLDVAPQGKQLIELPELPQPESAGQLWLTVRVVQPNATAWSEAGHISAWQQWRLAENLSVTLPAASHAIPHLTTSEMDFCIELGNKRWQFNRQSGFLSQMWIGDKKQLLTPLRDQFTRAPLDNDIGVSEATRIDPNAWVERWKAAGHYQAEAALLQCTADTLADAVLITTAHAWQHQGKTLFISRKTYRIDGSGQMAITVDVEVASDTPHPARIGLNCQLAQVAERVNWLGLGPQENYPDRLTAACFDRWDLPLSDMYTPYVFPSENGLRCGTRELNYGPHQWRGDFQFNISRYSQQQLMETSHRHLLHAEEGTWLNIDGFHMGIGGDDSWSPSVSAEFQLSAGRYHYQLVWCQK
# [25] = target: Induced myeloid leukemia cell differentiation protein Mcl-1 (Homo sapiens, UniProt Q07820); assay: blockers of MCL1 binding to BIM peptide – biochemical, fluorescence polarization, BIM-BH3 peptide, 1536-well, dose response (AID 2217)
# Hexokinase HKDC1 = Hexokinase HKDC1 (Homo sapiens, UniProt Q2TB90); assay: inhibition of HKDC1 glucose phosphorylation – biochemical, W721R variant, dose response (AID 504729); type: functional
# Bcl-2-like protein 1 = Bcl-2-like protein 1 (Homo sapiens, UniProt Q07817); assay: blockers of BCLXL peptide binding – biochemical, fluorescence polarization, 1536-well, selectivity assay for MCL1 inhibitor project, dose response (AID 2218)
# Chain of Bcl-2-like protein 1 (Q07817 whole entry): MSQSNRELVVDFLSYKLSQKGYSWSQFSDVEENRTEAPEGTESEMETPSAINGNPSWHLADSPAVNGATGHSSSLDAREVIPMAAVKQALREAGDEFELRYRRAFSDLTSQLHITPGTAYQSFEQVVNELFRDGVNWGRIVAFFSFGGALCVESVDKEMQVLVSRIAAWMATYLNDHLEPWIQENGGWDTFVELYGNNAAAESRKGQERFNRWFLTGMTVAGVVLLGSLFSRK
# [26] = target: DNA (cytosine-5)-methyltransferase 1 (Homo sapiens, UniProt P26358); assay: inhibition of DNA methylation by DNMT1 – biochemical, fluorescent molecular beacon, confirmation (AID 602386); type: functional
# Chain of DNA (cytosine-5)-methyltransferase 1 (P26358 whole entry): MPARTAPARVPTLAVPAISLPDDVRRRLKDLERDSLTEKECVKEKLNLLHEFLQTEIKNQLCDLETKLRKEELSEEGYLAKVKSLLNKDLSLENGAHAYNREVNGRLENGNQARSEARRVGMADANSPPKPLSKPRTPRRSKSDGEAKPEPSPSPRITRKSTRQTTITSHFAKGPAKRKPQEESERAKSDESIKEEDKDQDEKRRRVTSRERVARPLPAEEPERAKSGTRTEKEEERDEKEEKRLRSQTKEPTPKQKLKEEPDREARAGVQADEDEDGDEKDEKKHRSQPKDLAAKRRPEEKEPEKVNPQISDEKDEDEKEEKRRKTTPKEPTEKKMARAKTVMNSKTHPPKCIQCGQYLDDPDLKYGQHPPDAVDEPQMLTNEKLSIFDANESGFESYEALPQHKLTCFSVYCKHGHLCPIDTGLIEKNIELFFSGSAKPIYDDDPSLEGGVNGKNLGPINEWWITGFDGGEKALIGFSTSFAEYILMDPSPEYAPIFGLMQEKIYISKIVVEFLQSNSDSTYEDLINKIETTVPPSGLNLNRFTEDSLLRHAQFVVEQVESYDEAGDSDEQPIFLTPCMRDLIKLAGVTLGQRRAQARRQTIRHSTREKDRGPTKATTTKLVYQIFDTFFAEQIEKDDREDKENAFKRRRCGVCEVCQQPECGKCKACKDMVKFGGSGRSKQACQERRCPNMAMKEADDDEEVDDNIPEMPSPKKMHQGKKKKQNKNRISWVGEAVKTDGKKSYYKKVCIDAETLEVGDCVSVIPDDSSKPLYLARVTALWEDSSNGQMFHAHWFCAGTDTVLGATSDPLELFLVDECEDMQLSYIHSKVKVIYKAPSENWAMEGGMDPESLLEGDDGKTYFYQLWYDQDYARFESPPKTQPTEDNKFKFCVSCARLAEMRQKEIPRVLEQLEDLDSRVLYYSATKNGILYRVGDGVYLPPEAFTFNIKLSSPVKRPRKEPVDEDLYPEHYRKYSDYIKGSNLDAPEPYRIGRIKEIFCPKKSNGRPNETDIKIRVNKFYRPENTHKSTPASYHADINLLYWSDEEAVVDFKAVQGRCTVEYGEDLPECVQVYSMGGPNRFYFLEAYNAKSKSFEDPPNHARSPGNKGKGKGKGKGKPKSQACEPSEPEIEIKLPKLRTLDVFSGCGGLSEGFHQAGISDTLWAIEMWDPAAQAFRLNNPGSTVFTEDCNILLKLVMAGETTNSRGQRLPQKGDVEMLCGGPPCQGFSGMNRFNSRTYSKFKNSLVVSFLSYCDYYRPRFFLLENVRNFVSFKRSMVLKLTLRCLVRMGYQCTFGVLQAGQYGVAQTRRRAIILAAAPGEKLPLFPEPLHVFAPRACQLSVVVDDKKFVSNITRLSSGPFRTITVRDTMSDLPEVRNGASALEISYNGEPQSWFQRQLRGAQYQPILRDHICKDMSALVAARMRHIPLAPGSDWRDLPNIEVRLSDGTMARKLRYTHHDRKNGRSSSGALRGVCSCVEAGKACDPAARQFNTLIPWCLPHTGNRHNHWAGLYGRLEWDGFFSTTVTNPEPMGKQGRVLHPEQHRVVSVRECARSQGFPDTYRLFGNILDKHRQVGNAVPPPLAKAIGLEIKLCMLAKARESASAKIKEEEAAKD
# [27] = target: 72 kDa type IV collagenase (Homo sapiens, UniProt P08253); assay: Dose Response validation of uHTS RPN11 inhibitor hits using a MMP-2 Fluorescence assay.; type: functional
# Prothrombin = Prothrombin (Bos taurus, UniProt P00735); assay: thrombin protease inhibitors – biochemical, fluorescence polarization, uHTS hits, dose response (AID 602369); type: functional
# [28] = target: 26S proteasome non-ATPase regulatory subunit 14 (Homo sapiens, UniProt O00487); assay: inhibition of proteasome subunit RPN11 – biochemical, fluorescence polarization, uHTS hits, confirmation (AID 602368); type: functional
# Chain of 26S proteasome non-ATPase regulatory subunit 14 (O00487 whole entry): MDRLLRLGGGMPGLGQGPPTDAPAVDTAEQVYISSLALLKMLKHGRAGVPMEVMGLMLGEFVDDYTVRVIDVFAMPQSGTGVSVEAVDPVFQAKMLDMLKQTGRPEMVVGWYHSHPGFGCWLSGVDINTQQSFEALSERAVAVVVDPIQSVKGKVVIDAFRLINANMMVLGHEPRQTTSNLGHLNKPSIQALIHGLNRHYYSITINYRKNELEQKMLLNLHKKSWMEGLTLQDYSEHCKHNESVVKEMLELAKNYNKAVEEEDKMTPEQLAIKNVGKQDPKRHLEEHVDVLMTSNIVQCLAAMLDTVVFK
structure (smiles),measurement,setting,value
Cc1cc(Br)ccc1NC(=O)CCCOc1cc(=O)n(C)c2ccccc12,EC50,[1],> 49.7 µM (inactive)
same,EC50,Wee1-like protein kinase,> 49.7 µM (inactive)
Oc1c(C(c2ccccn2)N2CCOCC2)ccc2cccnc12 (configuration not stated),EC50,[2],> 20 µM (not active)
same,IC50,[3],2.36 µM (active)
same,EC50,[4],74.8 µM (active)
same,IC50,[5],> 50 µM (not active)
same,IC50,Estrogen receptor beta,> 50 µM (not active)
same,IC50,[6],> 67 µM (not active)
same,EC50,[7],> 38 µM (not active)
same,EC50,[8],> 20 µM (not active)
same,EC50,[9],> 150 µM (inactive)
OC1CCN(c2cc(-c3ccccc3)nc3cc(-c4ccc(F)cc4)nn23)CC1,AC50,[10],11.8 µM (active)
same,AC50,[11],4.72 µM (active)
O=C(CSCCO)Nc1ccc(C23C[C@H]4C[C@@H](C2)C[C@@H](C3)C4)cc1,IC50,[12],> 80 µM (inactive)
COc1ccc(OC)c(/C=C2\SC(NNC(=O)c3ccc4ccccc4c3)=NC2=O)c1,IC50,SUMO-activating enzyme [13],2.14 µM (active)
same,AC50,[11],2.36 µM (active)
same,IC50,SUMO-activating enzyme [14],18.1 µM (active)
O=C(/C=N/O)Nc1ccc(F)cc1,IC50,[15],> 64 µM (inactive)
CCCCn1c(=O)c(C(=O)NCc2ccccc2)c(O)c2ccccc21,EC50,Streptococcus [16],> 150 µM (inconclusive)
same,EC50,Streptokinase A,6.35 µM (active)
same,EC50,Streptococcus [17],> 500 µM (not active)
same,AC50,[11],8.37 µM (active)
same,EC50,[18],17.5 µM (active)
O=C(O)c1ccc([N+](=O)[O-])c2c1NC(C(=O)O)C1CC=CC21 (configuration not stated),IC50,[19],> 100 µM (not active)
same,IC50,[20],> 100 µM (inactive)
same,IC50,[21],90.6 µM (active)
same,IC50,[22],92.9 µM (active)
same,IC50,[23],> 100 µM (not active)
same,IC50,[24],> 100 µM (inactive)
C=CCN1CC[C@]23c4c5ccc(O)c4O[C@H]2C(=O)CC[C@@]3(O)[C@H]1C5 [NALOXONE HYDROCHLORIDE],EC50,Beta-galactosidase,> 31.5 µM (inactive)
N#Cc1c(SCC(=O)Nc2nc3ccc(Br)cc3s2)sc2c(O)cc(=O)[nH]c12,IC50,[25],> 109 µM (not active)
same,IC50,Hexokinase HKDC1,24.8 µM (inactive)
same,IC50,Bcl-2-like protein 1,> 109 µM (not active)
same,IC50,[26],8.28 µM (active)
same,IC50,[27],3.94 µM (active)
same,IC50,Prothrombin,71.2 µM (active)
same,IC50,[28],12.8 µM (active)
